The results in this text go back to PMC7144380 (Molecules, 2020).

The target of assay [1] is T1, δ-opioid receptor (DOR), rat (Rattus norvegicus, UniProt P33533).
T1 construct: gene Oprd1; native receptor in rat brain membrane homogenate
As to the kind of experiment: […]GTPγS binding, rat brain membranes. In kind it is biochemical. The note with it: agonist; pH 7.4, 30 °C, 60 min, 30 µM GDP.

Assay [2] addresses T1, δ-opioid receptor (DOR), rat. As to the kind of experiment: [3H]Ile5,6-deltorphin II competition, rat brain membranes. In kind it is binding. The note with it: 50 mM Tris-HCl pH 7.4, 35 °C, 45 min; unreliable (incomplete displacement).
Assay [3] addresses T2, µ-opioid receptor (MOR), rat (Rattus norvegicus, UniProt P33535).
T2 construct: gene Oprm1; native receptor in rat brain membrane homogenate or rat vas deferens
In kind it is binding. The note with it: read-out: Ki ± S.E.M. (nM) / [^3H]DAMGO (μ) ^1.

For the next assay, the target named is T3, MOR, mouse vas deferens (Mus musculus, UniProt P42866).
T3 construct: gene Oprm1; native receptor in isolated mouse vas deferens
Particulars: read-out: EC50 ± S.E.M. (nM) / MVD.

Assay [4] addresses T1, δ-opioid receptor (DOR), rat. The assay can be described thus: [3H]Ile5,6-deltorphin II competition, rat brain membranes. In kind it is binding. The note with it: read-out: Ki ± S.E.M. (nM) / [^3H]IleDelt II (δ) ^1; 50 mM Tris-HCl pH 7.4, 35 °C, 45 min; Cheng-Prusoff.
The target of assay [5] is T4, κ-opioid receptor (KOR), guinea pig (Cavia porcellus, UniProt P41144).
T4 construct: gene OPRK1; native receptor in guinea pig brain membrane homogenate
The assay can be described thus: [3H]U-69593 competition, guinea pig brain membranes. The class given is binding. The note with it: 50 mM Tris-HCl pH 7.4, 30 °C, 30 min; unreliable (partial displacement). From the text:
[3H]U-69593 competition, guinea pig brain membranes on κ-opioid receptor (KOR), guinea pig

The target in assay [6] is T2, µ-opioid receptor (MOR), rat. The assay can be described thus: […]GTPγS binding, rat brain membranes. In kind it is biochemical. Particulars: read-out: EC50 ± S.E.M.; agonist; pH 7.4, 30 °C, 60 min, 30 µM GDP; mixed opioid receptors in tissue, assigned to MOR by the authors. (GTPγS is a poorly hydrolysed GTP analogue; its binding reports G protein activation.)

Where two headings read alike, the source gives them in different places.

Compound `CC(C)[C@H](NC(=O)[C@H](CCC(=O)O)NC(=O)[C@H](Cc1ccccc1)NC(=O)[C@@H](C)NC(=O)[C@@H](N)Cc1ccc(O)cc1)C(=O)N[C@H](C(=O)NCC(N)=O)C(C)C` [deltorphin II] came in with an EC50 in assay [1] of 44.4 ± 23.5 nM.
For the compound `COc1ccc2c3c1O[C@H]1[C@@H](OS(=O)(=O)O)C=C[C@H]4[C@@H](C2)N(C)CC[C@@]341` [codeine-6-O-sulfate], the “Ki ± S.E.M. (nM) / [^3H]IleDelt II (δ) ^1” value in assay [2] is recorded as 968.28 ± 471.38 nM. The Ki in assay [3] (50 mM Tris-HCl pH 7.4, 35 °C, 45 min, Cheng-Prusoff) was determined as 96.9 ± 20.3 nM. Besides, the EC50 on MOR, mouse vas deferens (agonist, Mg2+-free Krebs, 31 °C, MOR assigned by naloxone Ke) is over 1000 nM.
With `COc1ccc2c3c1O[C@H]1[C@@H](OS(=O)(=O)O)C=C[C@@]4(OC)[C@@H](C2)N(C)CC[C@]314` [14-methoxycodeine-6-O-sulfate], the Ki in assay [4] came to 346 ± 133 nM; in assay [3], 3.37 ± 0.48 nM. The “Ki ± S.E.M. (nM) / [^3H]U-69593 (κ) ^2” value in assay [5] worked out at 245.57 ± 215.01 nM. Further, the EC50 in assay [6] turned out to be 301 ± 197 nM; on MOR, mouse vas deferens, 239 ± 6.15 nM.
